Assays:
tubulin network = experiment: mRNA sequencing and IPA analysis of SARS-CoV-2-infected neurons; assay type: cell-based, human; conditions: neurons infected with virus for 24 hours, treated vs vehicle (DMSO)
SARS-CoV-2 [1] = assay type: cell-based, SARS-CoV-2 (Seattle strain)
SARS-CoV-2 [2] = assay type: cell-based
Calu3 cells = experiment: RNAseq of infected Calu3 cells, DEG reversal z-score analysis; assay type: cell-based, human; conditions: overlapping genes with FDR<10%

SMILES: O=[N+]([O-])c1ccc(Sc2nnc(COc3ccccc3)n2-c2ccccc2)nc1 [MIND4-17, 5-Nitro-2-{[5-(phenoxymethyl)-4-phenyl-4H-1,2,4-triazol-3-yl]thio}pyridine]
- expression of tubulins in mRNAseq (IPA Coronavirus Replication Pathway) (tubulin network): downregulated
- SARS-CoV-2 levels determined by qPCR for Spike mRNA (SARS-CoV-2 [1]): dramatic reduction in Spike transcripts

SMILES: O=[N+]([O-])c1ccc(Sc2nnc(COc3ccccc3)n2-c2ccccc2)c2ncccc12 [MIND4]
- viral RNA levels (qPCR, Spike RNA) (SARS-CoV-2 [2]): dramatic reduction in viral RNA levels
- restoration of gene expression of infected cells to uninfected levels (log 2 fold change z-scores) (Calu3 cells): significant restoration back to uninfected state

Reference: US20240293384A1, “METHODS AND COMPOSITIONS FOR TREATMENT OF COVID-19” (priority 2021, published 2024)
